Consider one molecule from paper PMC3485383 (Biochemistry, 2012).

The target of assay [1] is T1, cytochrome P450 2B6 (Homo sapiens, UniProt P20813, K262R/Y226H).
T1 sequence (P20813 29-491 Y226H/K262R): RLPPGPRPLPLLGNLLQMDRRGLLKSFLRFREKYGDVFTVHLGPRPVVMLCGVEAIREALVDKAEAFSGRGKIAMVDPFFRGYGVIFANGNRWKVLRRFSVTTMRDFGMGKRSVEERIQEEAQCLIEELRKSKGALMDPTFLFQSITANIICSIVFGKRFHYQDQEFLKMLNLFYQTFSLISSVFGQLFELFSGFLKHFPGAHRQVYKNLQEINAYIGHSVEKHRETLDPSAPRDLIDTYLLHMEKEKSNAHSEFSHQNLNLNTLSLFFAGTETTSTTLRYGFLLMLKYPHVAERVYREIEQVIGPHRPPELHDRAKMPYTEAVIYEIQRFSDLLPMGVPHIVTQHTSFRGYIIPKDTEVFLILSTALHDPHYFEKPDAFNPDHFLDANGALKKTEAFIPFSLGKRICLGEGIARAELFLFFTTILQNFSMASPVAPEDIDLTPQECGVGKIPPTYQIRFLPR
In words: X-ray crystal structure. The class given is biochemical.

Assay [2] deals with T2, cytochrome P450 2B4 (Oryctolagus cuniculus, UniProt P00178, H226Y).
T2 sequence (P00178 28-491 H226Y): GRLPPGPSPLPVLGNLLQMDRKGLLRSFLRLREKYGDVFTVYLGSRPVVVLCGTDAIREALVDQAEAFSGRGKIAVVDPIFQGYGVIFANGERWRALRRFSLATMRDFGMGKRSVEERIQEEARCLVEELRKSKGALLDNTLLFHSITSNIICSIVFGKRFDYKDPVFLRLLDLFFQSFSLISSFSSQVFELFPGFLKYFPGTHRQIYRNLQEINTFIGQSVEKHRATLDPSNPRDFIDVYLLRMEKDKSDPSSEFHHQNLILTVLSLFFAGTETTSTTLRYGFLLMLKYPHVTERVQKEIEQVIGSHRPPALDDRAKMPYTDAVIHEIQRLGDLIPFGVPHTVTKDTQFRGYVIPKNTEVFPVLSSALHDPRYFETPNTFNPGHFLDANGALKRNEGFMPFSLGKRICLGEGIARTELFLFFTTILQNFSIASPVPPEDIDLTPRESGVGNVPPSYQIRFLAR
As to the kind of experiment: X-ray crystal structure. It is filed as binding.

`CCOC(=O)C1=C(COCCN)NC(C)=C(C(=O)OC)C1c1ccccc1Cl` (centres unmarked) [amlodipine] registered a half-maximal inhibitory concentration (IC50) in assay [1] of 1600 nM. For the same molecule, the Kd in assay [2] was 2060 nM.
